In patent US6262084A, “Compounds that inhibit the binding of integrins to their receptors” (Texas Biotechnology Corporation, priority 1999, dated 2001) one finds inhibition and IC50 data, which are given here for ten compounds.

This assay has as its target T1, α4β1 integrin (Homo sapiens, UniProt P05556+P13612).
T1 construct: Ramos cells fluorescently labeled with calcein; endogenous in cells; host or cells: Ramos cells
Kind of assay: Inhibition of adhesion of calcein-labeled Ramos cells to CS1 (fibronectin) peptide-conjugated ovalbumin. The assay is classed as cell-based. The note with it: for inhibition at 100 µM: Ramos, compound at a concentration of 100 μM, read-out: % A (percent inhibition of cell adhesion); for IC50: dose required to give 50% inhibition, Ramos cell adhesion to CS1-ovalbumin, 30 minutes at 37° C. Summed up: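 Calcein-labelled Ramos cells (2.5×10^5/well) in TBS with 1 mM MgCl2, CaCl2 and MnCl2 adhered to CS1 peptide–ovalbumin coated at 5 μg/ml for 30 min at 37 °C, with or without compound. After washing, bound cells were lysed and read by fluorescence. IC50 is the dose giving 50% inhibition, and % inhibition was measured at 100 μM.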

T1 sequence (P13612 34-1032): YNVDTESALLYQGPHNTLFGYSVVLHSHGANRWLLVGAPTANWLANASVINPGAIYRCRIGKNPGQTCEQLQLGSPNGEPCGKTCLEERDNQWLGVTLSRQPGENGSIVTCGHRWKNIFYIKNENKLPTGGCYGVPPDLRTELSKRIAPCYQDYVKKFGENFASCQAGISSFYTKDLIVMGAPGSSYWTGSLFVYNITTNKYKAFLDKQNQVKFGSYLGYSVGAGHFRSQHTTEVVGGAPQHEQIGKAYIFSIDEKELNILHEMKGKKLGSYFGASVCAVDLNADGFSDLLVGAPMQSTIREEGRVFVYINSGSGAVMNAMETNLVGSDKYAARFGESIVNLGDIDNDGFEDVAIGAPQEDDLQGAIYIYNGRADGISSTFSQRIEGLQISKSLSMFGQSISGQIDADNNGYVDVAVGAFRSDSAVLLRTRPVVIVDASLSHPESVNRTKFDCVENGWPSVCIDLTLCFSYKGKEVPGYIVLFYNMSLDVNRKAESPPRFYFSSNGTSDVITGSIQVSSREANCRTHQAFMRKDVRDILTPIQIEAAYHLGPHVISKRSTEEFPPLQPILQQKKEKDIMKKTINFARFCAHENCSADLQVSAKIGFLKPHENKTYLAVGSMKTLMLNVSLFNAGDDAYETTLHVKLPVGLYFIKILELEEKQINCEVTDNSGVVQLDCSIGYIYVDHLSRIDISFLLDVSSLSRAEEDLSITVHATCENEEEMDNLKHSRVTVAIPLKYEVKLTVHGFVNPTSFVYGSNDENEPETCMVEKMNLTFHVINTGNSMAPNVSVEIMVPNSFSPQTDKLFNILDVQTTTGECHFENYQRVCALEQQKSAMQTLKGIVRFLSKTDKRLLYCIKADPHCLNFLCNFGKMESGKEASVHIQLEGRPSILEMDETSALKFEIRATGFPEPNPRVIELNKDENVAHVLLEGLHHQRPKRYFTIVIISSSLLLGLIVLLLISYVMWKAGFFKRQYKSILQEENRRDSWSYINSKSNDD
T1 sequence (P05556 21-798): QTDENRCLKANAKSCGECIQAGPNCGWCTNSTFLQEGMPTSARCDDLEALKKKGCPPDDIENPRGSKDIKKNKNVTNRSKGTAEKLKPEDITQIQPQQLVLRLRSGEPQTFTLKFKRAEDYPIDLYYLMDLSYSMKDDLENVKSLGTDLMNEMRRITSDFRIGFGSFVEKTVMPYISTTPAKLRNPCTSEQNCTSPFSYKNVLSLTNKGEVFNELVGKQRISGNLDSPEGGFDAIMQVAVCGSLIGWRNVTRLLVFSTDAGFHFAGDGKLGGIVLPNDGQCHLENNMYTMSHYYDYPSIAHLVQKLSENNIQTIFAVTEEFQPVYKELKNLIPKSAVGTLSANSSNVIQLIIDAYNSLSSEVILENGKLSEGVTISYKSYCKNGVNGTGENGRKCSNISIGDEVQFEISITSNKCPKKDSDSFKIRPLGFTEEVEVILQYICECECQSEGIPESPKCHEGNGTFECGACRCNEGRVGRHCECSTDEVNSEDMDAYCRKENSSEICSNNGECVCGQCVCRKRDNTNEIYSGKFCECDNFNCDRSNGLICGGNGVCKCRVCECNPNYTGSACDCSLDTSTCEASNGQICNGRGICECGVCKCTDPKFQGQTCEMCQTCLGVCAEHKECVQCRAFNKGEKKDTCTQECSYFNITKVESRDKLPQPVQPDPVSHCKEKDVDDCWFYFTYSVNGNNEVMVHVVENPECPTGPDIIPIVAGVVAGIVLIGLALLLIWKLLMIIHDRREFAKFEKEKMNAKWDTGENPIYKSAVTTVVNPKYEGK

On to `COC(=O)NCCCC[C@H](NC(=O)N[C@@H](CC(=O)O)c1ccc2c(c1)OCO2)C(=O)NCc1ccc(N(Cc2ccccc2C)Cc2ccccc2C)cc1` [(9S,13S)-13-(1,3-benzodioxol-5-yl)-9-[({4-bis(2-methylbenzyl)amino]benzyl}amino)carbonyl]-3,11-dioxo-2-oxa-4,10,12-triazapentadecan-15-oic acid], for which, where the note is “Table 1”, the inhibition (commonly the drop in the measured response relative to a control, in per cent) at 100 µM is 95% and the IC50 (commonly the midpoint of a concentration-inhibition curve) was 1000 nM.
In the same order, the values of `CCCSC[C@@H](CSc1ccccc1)NC(=O)N[C@@H](CC(=O)O)c1ccc2c(c1)OCO2` [(3S)-3-(1,3-benzodioxol-5-yl)-3-{[({(1S)-2-(phenylsulfanyl)-1-[(propylsulfanyl)methyl]ethyl}amino)carbonyl]amino}propanoic acid] are 100% and 500 nM.
For `O=C(O)C[C@H](NC(=O)N[C@@H](CCCCNC(=O)OCc1ccccc1)C(=O)NCCCN1CCCC1=O)c1ccc2c(c1)OCO2` [(9S,13S)-13-(1,3-benzodioxol-5-yl)-3,11-dioxo-9-({[3-(2-oxo-1-pyrrolidinyl)propyl]amino}carbonyl)-1-phenyl-2-oxa-4,10,12-triazapentadecan-15-oic acid], in that order: 100% and 3000 nM.
For `CCCC[C@H](NC(=O)N[C@@H](CC(=O)O)c1ccc2c(c1)OCO2)C(=O)Nc1ccccc1C(C)=O` [Compound 35, (3S)-3-(1,3-benzodioxol-5-yl)-3-([((1S)-1-[(2-acetylphenyl)amino]carbonylpentyl)amino]carbonylamino)propanoic acid], the IC50 (Table 2) was 350 nM.
Take `O=C(O)C[C@H](NC(=O)NCCSc1ccccc1)c1ccc2c(c1)OCO2` [(3S)-3-(1,3-benzodioxol-5-yl)-3-[({[2-(phenylsulfanyl)ethyl]amino}carbonyl)amino]propanoic acid]: under “Table 1”, the inhibition at 100 µM is 100% and the IC50 was 6000 nM.
As for `CCCC[C@H](NC(=O)N[C@@H](CC(=O)O)c1ccc2c(c1)OCO2)C(=O)NCc1ccc(NCc2ccccc2C)cc1` [Compound 39], the IC50 (Table 2) is 50 nM.
Take `CC(C)C[C@@H](CSc1ccccc1)NC(=O)N[C@@H](CC(=O)O)c1ccc2c(c1)OCO2` [(3S)-3-(1,3-benzodioxol-5-yl)-3-{[({(1S)-3-methyl-1-[(phenylsulfanyl)methyl]butyl}amino)carbonyl]amino}propanoic acid]: under “Table 1”, the inhibition at 100 µM was 100% and the IC50 is 2000 nM.
Take `CC(C)[C@@H](CSCCc1ccccc1)NC(=O)N[C@@H](CC(=O)O)c1ccc2c(c1)OCO2` [(3S)-3-(1,3-benzodioxol-5-yl)-3-{[({(1S)-2-methyl-1-[(phenethylsulfanyl)methyl]propyl}amino)carbonyl]amino}propanoic acid]: where the note is “Table 1”, the inhibition at 100 µM was 98% and the IC50 is 20000 nM.
As to `CCCC[C@H](NC(=O)N[C@@H](CC(=O)O)c1ccc2c(c1)OCO2)C(=O)NCc1ccc(NCc2ccc(C)s2)cc1` [Compound 41, 3(3S)-3-(1,3-benzodioxol-5-yl)-3-([((1S)-1-[(4-(5-methyl-2-thienylmethyl)aminobenzyl)amino]carbonylpentyl)amino]carbonylamino)propanoic acid], the IC50 (Table 2) was 100 nM.
Take `CCCSC[C@H](NC(=O)N[C@@H](CC(=O)O)c1ccc2c(c1)OCO2)c1ccccc1` [(3S)-3-(1,3-benzodioxol-5-yl)-3-[({[(1R)-1-phenyl-2-(propylthio)ethyl]amino}carbonyl)amino]propanoic acid]: under “Table 1”, the inhibition at 100 µM was 100% and the IC50 was 25000 nM.
